Reference: publication PMC6348443 (Journal of Medicinal Chemistry, 2018)
Structures can show the parent of a compound that is named as a salt.

How the values were obtained:
MOR [1] = molecular target: T1, MOR (Rattus norvegicus, UniProt P33535); assay: competition radioligand binding, rat brain membranes, [3H]DAMGO; settings: for Ki: rat brain membranes, read-out: opioid receptor binding Ki MOR
T1 construct: Membranes were prepared from Sprague-Dawley rat brains or guinea-pig brains according to the described procedures; tissue Labortierkunde und Laborgenetik, Medizinische Universität Wien; host or cells: Sprague-Dawley rat brain without cerebella
Experimental: (§1) Competition binding assays using rat brain (MOR and DOR) and guinea-pig brain (KOR) membranes (Table 1) were performed according to published procedures.[44],[49] […] In addition, we have assessed binding at the human opioid receptors stably transfected in Chinese hamster ovary (CHO) cells (Table S1).
(§2) Membranes were prepared from Sprague-Dawley rat brains or guinea-pig brains according to the described procedures.[44],[45] Brains without cerebella were homogenized on ice in 5 vol/wt of ice-cold 50 mM Tris-HCl buffer (pH 7.4) and diluted in 30 vol/wt of the same buffer. After centrifugation at 40 000g for 20 min at 4 °C, the pellets were resuspended in 30 vol/wt of 50 mM Tris-HCl buffer (pH 7.4) and incubated at 37 °C for 30 min. The centrifugation step described above was repeated, and the final pellets were resuspended in 5 vol/wt of 50 mM Tris-HCl buffer (pH 7.4) containing 0.32 M sucrose and stored at −80 °C until use.
(§3) Rat brain membranes were incubated with either [^3H]DAMGO (1 nM, 45 min, 35 °C) or [^3H][Ile^5,6]deltorphin II (0.5 nM, 45 min, 35 °C) for labeling MOR or DOR receptors, respectively. Guinea-pig brain membranes were incubated with [^3H]U69,593 (1 nM, 30 min, 30 °C) for labeling KOR. Binding assays with CHO cell membranes were conducted at 25 °C for 60 min using [^3H]DAMGO (1 nM) or [^3H]diprenorphine (0.2 nM) for labeling MOR or DOR, respectively. Nonspecific binding was determined using 10 μM naloxone (rodent brain) or 1–10 μM of the unlabeled counterpart of each radioligand (CHO cells). Reactions were terminated by rapid filtration through Whatman glass fiber GF/C filters. Filters were washed three times with 5 mL of ice-cold 50 mM Tris-HCl buffer (pH 7.4) using a Brandel M24R cell harvester (Gaithersburg, MD). Radioactivity retained on the filters was counted by liquid scintillation counting using a Beckman Coulter LS6500 (Beckman Coulter Inc., Fullerton, CA). All binding experiments were performed in duplicate and repeated at least three times.
(§4) Data were analyzed and graphically processed using the GraphPad Prism 5.0 Software (GraphPad Prism Software Inc., San Diego, CA). For in vitro assays, inhibition constant (Ki in nM), potency (EC50 in nM), and efficacy (% stimulation) values were determined from concentration–response curves by nonlinear regression analysis. The Ki values were determined by the method of Cheng and Prusoff.[66] In the [^35S]GTPγS binding assays, efficacy was determined relative to the reference full opioid agonists, DAMGO (MOR), DPDPE (DOR), and U69,593 (KOR). In vitro data are presented as mean ± SEM of three to four independent experiments each performed in duplicate. […] Each experimental group included six to seven mice. Data were statistically evaluated using one-way ANOVA with Tukey’s post hoc test for multiple comparisons with significance set at P < 0.05.

DOR [2] = molecular target: T2, DOR (Rattus norvegicus, UniProt P33533); assay: competition radioligand binding, rat brain membranes, [3H][Ile5,6]deltorphin II; settings: rat brain membranes; read-out: opioid receptor binding Ki DOR
T2 construct: Membranes were prepared from Sprague-Dawley rat brains or guinea-pig brains according to the described procedures; tissue Labortierkunde und Laborgenetik, Medizinische Universität Wien; host or cells: Sprague-Dawley rat brain without cerebella
Experimental: as §1, §2, §3, §4

KOR [3] = molecular target: T3, KOR (Cavia porcellus, UniProt P41144); assay: competition radioligand binding, guinea-pig brain membranes, [3H]U69,593; settings: guinea-pig brain membranes; read-out: opioid receptor binding Ki KOR
T3 construct: Membranes were prepared from Sprague-Dawley rat brains or guinea-pig brains according to the described procedures; tissue Labortierkunde und Laborgenetik, Medizinische Universität Wien; host or cells: guinea-pig brain without cerebella
Experimental: as §1, §2, §3, §4

MOR [4] = molecular target: T4, MOR (Homo sapiens, UniProt P35372); assay: [35S]GTPγS binding assay, CHO-hMOR membranes; assay type: biochemical; settings: for EC50: [35S]GTPγS, CHO human MOR membranes, read-out: MOR EC50; for Emax: relative to reference full agonist DAMGO, read-out: MOR % stim.
T4 construct: host or cells: CHO (CHO-hMOR)
Experimental: (§5) Efficacies are presented as percentage stimulation relative to the standard full agonists, [D-Ala^2,N-Me-Phe4,Gly-ol^5]enkephalin (DAMGO for MOR),[53] [D-Pen^2,D-Pen^5]enkephalin (DPDPE for DOR)[54] and N-methyl-2-phenyl-N-[(5R,7S,8S)-7-(pyrrolidin-1-yl)-1-oxaspiro[4.5]dec-8-yl]acetamide (U69,593 for KOR).[55]
(§6) Membranes from CHO cells expressing human opioid receptors were prepared in 50 mM Tris-HCl buffer (pH 7.7) according to a previously described procedure.[64] Cells expressing human opioid receptors grown at confluence were removed from the culture plates by scraping, homogenized in 50 mM Tris buffer (pH 7.7), using a Polytron homogenizer, then centrifuged once and washed by an additional centrifugation at 27 000g for 15 min, at 4 °C. The final pellet was resuspended in Tris buffer and stored at −80 °C until use. Protein content of brain and cell membrane preparation homogenates was determined by the method of Bradford using bovine serum albumin as the standard.[65]
(§7) Binding of [^35S]GTPγS to membranes from CHO cells stably expressing the human opioid receptors was conducted according to the published procedures.[49],[64] Cell membranes (5–10 μg) in 20 mM HEPES, 10 mM MgCl2, and 100 mM NaCl (pH 7.4) were incubated with 0.05 nM [^35S]GTPγS, 10 μM GDP, and various concentrations of test compound in a final volume of 1 mL, for 60 min at 25 °C. Nonspecific binding was determined using 10 μM GTPγS, and the basal binding was determined in the absence of test ligand. Samples are filtered over glass Whatman glass GF/B fiber filters and counted as described for binding assays. All experiments were performed in duplicate and repeated at least three times.
as §4

DOR [5] = molecular target: T5, DOR (Homo sapiens, UniProt P41143); assay: [35S]GTPγS binding assay, CHO-hDOR membranes; assay type: biochemical; settings: for EC50: [35S]GTPγS, CHO human DOR membranes; for Emax: relative to reference full agonist DPDPE, read-out: DOR % stim.
T5 construct: host or cells: CHO (CHO-hDOR)
Experimental: as §5, §6, §7, §4

KOR [6] = molecular target: T6, KOR (Homo sapiens, UniProt P41145); assay: [35S]GTPγS binding assay, CHO-hKOR membranes; assay type: biochemical; settings: for EC50: [35S]GTPγS, CHO human KOR membranes, read-out: KOR EC50; for Emax: relative to reference full agonist U69,593, read-out: KOR % stim.; for functional profile at KOR (full/partial agonist): partial agonist <85% of the response to U69,593
T6 construct: host or cells: CHO (CHO-hKOR)
Experimental: as §5, §6, §7, §4

Row | Compound | Ki ratio MOR/DOR/KOR (MOR [1]; from Ki in rat (MOR, DOR) and guinea-pig (KOR) brain membranes) | Ki (MOR [1]) | Ki (DOR [2]) | Ki (KOR [3]) | EC50 (MOR [4]) | Emax (MOR [4]) | EC50 (DOR [5]) | Emax (DOR [5]) | EC50 (KOR [6]) | Emax (KOR [6]) | functional profile at KOR (full/partial agonist) (KOR [6]) | increase in MOR binding affinity vs comparator (MOR [1]; rat brain, 17b vs 4b, 16a/b vs 7a/b, 22a/b vs 7a, 7b and 9b, 14a vs 14b) | increased agonist potency at DOR vs MOR (DOR [5]; [35S]GTPγS EC50)
1 | CO[C@@]12CC[C@@H](NCCC(=O)O)[C@@H]3Oc4c(O)ccc5c4[C@@]31CCN(C)[C@@H]2C5 [Compound 20b, 3-[(4,5α-Epoxy-3-hydroxy-14β-methoxy-17-methylmorphinan-6β-yl)amino]propionic Acid Dihydrochloride] | 1/13/69 | 1.04 ± 0.04 nM | 13.9 ± 1.7 nM | 71.4 ± 4.6 nM | 5.74 ± 0.47 nM | ~80% | 20.1 ± 10.7 nM | 99 ± 3% | 622 ± 311 nM | 67 ± 12% | – | – | –
2 | CO[C@@]12CC[C@H](N[C@H](C(=O)O)C(C)C)[C@@H]3Oc4c(O)ccc5c4[C@@]31CCN(C)[C@@H]2C5 [Compound 7a, (2S)-2-[(4,5α-Epoxy-3-hydroxy-14β-methoxy-17-methylmorphinan-6α-yl)amino]-3-methylbutyric Acid Dihydrochloride] | – | 3.16 ± 0.25 nM | 3.91 ± 0.3 nM | 325 ± 19 nM | 10.5 ± 4 nM | 95 ± 8% | 33.8 ± 8.9 nM | 91 ± 2% | 462 ± 126 nM | 51 ± 0.5% | partial agonist | – | –
3 | CO[C@@]12CC[C@H](N[C@@H](C(=O)O)C(C)C)[C@@H]3Oc4c(O)ccc5c4[C@@]31CCN(C)[C@@H]2C5 [Compound 16a] | – | 1.7 ± 0.09 nM | 1.93 ± 0.24 nM | 202 ± 3 nM | 4.51 ± 2.35 nM | 105 ± 4% | 1.12 ± 0.69 nM | 93 ± 4% | 2220 ± 818 nM | 96 ± 16% | full agonists | 2–3 times | ca. 4 times
4 | CO[C@@]12CC[C@H](N[C@@H](Cc3c[nH]c4ccccc34)C(=O)O)[C@@H]3Oc4c(O)ccc5c4[C@@]31CCN(C)[C@@H]2C5 [Compound 10a, (2S)-2-[(4,5α-Epoxy-3-hydroxy-14β-methoxy-17-methylmorphinan-6α-yl)-amino]-3-(1H-indolo-3yl)propionic Acid Dihydrochloride] | – | 0.36 ± 0.01 nM | 1.02 ± 0.12 nM | 25.1 ± 9.3 nM | 0.51 ± 0.34 nM | 93 ± 9% | 2.52 ± 1.41 nM | 102 ± 8% | 70.1 ± 20.5 nM | 61 ± 8% | – | – | –
